Assay results as given in PMC8149832, “A comparative study of synthetic winged peptides for absolute protein quantification” (Scientific Reports, 2021).
Ends that are not written are not given here.

Biological target: T1, Trypsin (Sus scrofa, UniProt P00761)
T1 construct: purchased Promega V5280
Experiment: Trypsin digestion efficiency / kinetics of signature peptide formation
Type: biochemical
Conditions: trypsin 1:20 w/w, 37 °C, SRM peak area; for formation of signature peptide by trypsin digestion, rate or yield (in words): AmBic/SDC buffer with 5% ACN reconstitution, 0.5-24 h, Figs. 4, S3, S4; for time to plateau of signature peptide formed from C-terminal extended SIL peptide (in words): AmBic/SDC buffer, quenched at 0.5, 2, 4, 8, 16, 24 h, n = 3, Fig. S4
Method: HSA concentration in the pooled serum sample diluted twofold with ultrapure water was determined using BCG albumin assay kit on the 96-well plate format (cat. #MAK124-1KT, Sigma-Aldrich). The seven-point calibration series was prepared using HSA standard (5 to 50 mg/mL) in ultrapure water. The absorption spectrophotometry was measured at 620 nm wavelength. The pooled serum sample (10 µL), diluted 2000-fold using 50 mM AmBic with 5 mg/mL SDC (AmBic/SDC buffer) to HSA concentration of approx. 500 nM and transferred into a clean microcentrifuge tube. After adding SIL protein or peptide internal standard (10 µL), the sample was reduced (adding 1 µL of 200 mM DTT stock solution, 95 °C, 10 min), cooled down to ambient temperature, and cysteine residues were alkylated (adding 1 µL of 400 mM IAAstock solution, ambient temperature, 30 min in the dark). Trypsin was added to the sample in a 1:20 ratio (w/w enzyme to total protein content), and samples were incubated (37 °C, 16 h) in microcentrifuge tubes sealed with a paraffin film. The enzymatic proteolysis was quenched at different time points (0.5, 2, 4, 8, 16, and 24 h; n = 3) to optimize the incubation time. The proteolysis was quenched by adding 200 µL of 2% FA in water (pH < 3), and tryptic peptides were desalted using a mixed-mode SPE cartridge in a 96-well plate format (Oasis PRIME HLB, Waters, Milford, MA). Samples were loaded onto the SPE cartridge, washed (300 µL water with 2% FA, pH < 3), eluted (50% ACN; 2% FA in water, pH < 3), and the extract was dried in a vacuum concentrator centrifuge (Savant SPD121 P SpeedVac, Thermo Fisher). Samples were dissolved (10 µL) in 5% ACN with 0.1% FA in water before UHPLC-SRM analysis. […]
The enzymatic digestion efficiency severely affects the quantitative performance of a protein assay[10],[11]. […] Overnight trypsin digestion is routinely used for reproducible proteolytic yields as the peptide's stability and formation efficiency may vary[11]. Maximal trypsinization yields of some signature peptides are reached within two hours[10],[16], while other peptides require longer digestion time[30]. We optimized the trypsin digestion duration to ensure reproducible signature peptide yields needed for a quantitative protein assay. We studied the signature peptide formation from light HSA protein and each version of SIL-Ex peptides after 0.5, 2, 4, 8, 16, and 24 h of incubation. SRM peak areas of light and heavy signature peptides and determined HSA protein concentrations (nM) were plotted against incubation time (h), comparing the efficiency of light HSA proteolysis with SIL-Ex peptides (Figs. 4, S3 and S4). The formation of HSA signature peptides LVNE, SLHT, DDNP, YLYE, and QTAL was compared for SIL-TCT, SIL-ExC5, SIL-ExC3N3, and SIL-ExC5N5 peptides (Fig. 4). Besides, the formation of HSA signature peptides DLGE, LCTV, LVTD, TYET, and FQNA was compared for SIL-TCT and SIL-ExC5 peptides only (Fig. S4).

T1 sequence (P00761 9-231): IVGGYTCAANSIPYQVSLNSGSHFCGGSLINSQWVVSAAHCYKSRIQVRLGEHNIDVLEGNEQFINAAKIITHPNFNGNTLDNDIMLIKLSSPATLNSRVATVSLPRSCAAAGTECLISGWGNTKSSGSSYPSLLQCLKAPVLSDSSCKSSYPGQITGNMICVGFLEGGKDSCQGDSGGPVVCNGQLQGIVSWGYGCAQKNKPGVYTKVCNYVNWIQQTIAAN

Row | formation of signature peptide by trypsin digestion, rate or yield (in words) | time to plateau of signature peptide formed from C-terminal extended SIL peptide (in words) | Substance
1 | rapidly formed signature peptide DDNP | – | DDNPNLPRLVRPE
2 | rapidly formed signature peptide DDNP | – | DDNPNLPRSAnYG [SIL-TCT DDNPNLPR]
3 | – | within the initial two hours | DLGEENFKALVLI
4 | – | within the initial two hours | DLGEENFKSAnYG [SIL-TCT DLGEENFK]
5 | – | within the initial two hours | LC*TVATLRETYGE
6 | – | within the initial two hours | LC*TVATLRSAnYG [SIL-TCT LCTVATLR]
7 | lower | – | RQIKKQTALVELVKHKPKA [SIL signature peptide extended with five amino acids at both C- and N-termini]
8 | lower | – | TFLKKYLYEIARRHPYF (also: stable isotope label, residues not given here) [SIL-ExC5N5 YLYEIAR, SIL signature peptide extended with five amino acids at both C- and N-termini]

Row | Substance | formation of signature peptide by trypsin digestion, rate or yield (in words) | time to plateau of signature peptide formed from C-terminal extended SIL peptide (in words)
9 | FLQHKDDNPNLPRLVRPE [SIL signature peptide extended with five amino acids at both C- and N-termini] | mimicking the slow digestion kinetics of light HSA protein | –
10 | LQHKDDNPNLPRLVR [SIL signature peptide extended with three amino acids at both C- and N-termini] | mimicking the slow digestion kinetics of light HSA protein | –
